Source: patent publication US20240239799A1, “(S)-1-(5-((PYRIDIN-3-YL)THIO)PYRAZIN-2-YL)-4'H,6'H-SPIRO[PIPERIDINE-4,5'-PYRROLO [1,2-B]PYRAZOL]-4'-AMINE DERIVATIVES AND SIMILAR COMPOUNDS AS SHP2 INHIBITORS FOR THE TREATMENT OF E.G. CANCER” (C.N.C.C.S. S.C.A.R.L. COLLEZIONE NAZIONALE DEI COMPOSTI …, priority 2021, published 2024)

Columns and labels:
[1] = target: T1, SHP-2 enzyme (Met1-Leu525) (Homo sapiens, UniProt Q06124); assay: SHP2 inhibition enzymatic assay (DiFMUP substrate, IRS1 peptide activation); type: biochemical; details: 0.5 nM SHP-2, 500 nM IRS1 peptide, 75 μM DiFMUP; read-out: SHP2wt - IC50
T1 construct: synthetized by Origene, Met1-Leu525, cat #TP750155; purchased Origene TP750155
T1 sequence (Q06124 1-525): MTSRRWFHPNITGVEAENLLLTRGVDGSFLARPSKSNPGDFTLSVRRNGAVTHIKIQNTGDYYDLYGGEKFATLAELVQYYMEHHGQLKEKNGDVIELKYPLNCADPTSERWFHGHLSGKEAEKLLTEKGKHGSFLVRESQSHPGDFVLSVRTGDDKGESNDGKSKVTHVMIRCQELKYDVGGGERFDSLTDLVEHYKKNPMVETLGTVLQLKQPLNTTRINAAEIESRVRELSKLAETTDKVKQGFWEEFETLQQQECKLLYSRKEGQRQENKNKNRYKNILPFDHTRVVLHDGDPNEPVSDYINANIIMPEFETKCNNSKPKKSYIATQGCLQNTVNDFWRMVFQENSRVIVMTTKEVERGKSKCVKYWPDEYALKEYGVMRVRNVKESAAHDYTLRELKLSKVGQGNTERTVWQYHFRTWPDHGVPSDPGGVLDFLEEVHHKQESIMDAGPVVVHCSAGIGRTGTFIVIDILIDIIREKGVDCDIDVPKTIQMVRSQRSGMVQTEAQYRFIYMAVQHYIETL
Procedure: Assay volume of 20 μL/well was assembled in 384 well black polystyrene low-binding microplates (Greiner), using the following buffer: 60 mM HEPES pH 7.2, 75 mM NaCl, 75 mM KCl, 1 mM EDTA pH 8, 0.05% tween-20, 5 mM DTT. The SHP-2 enzyme (synthetized by Origene, Met1-Leu525, cat #TP750155) was used at a final concentration of 0.5 nM.
Briefly, DMSO serially diluted testing compounds were transferred to the bottom of the assay plate. SHP2 was then added together with the IRS1 peptide 30 min post incubation, the DiFMUP substrate was added to the reaction and incubated 30 min at rt. […] The fluorescence was detected by a microplate reader (Envision, PerkinElmer) according to the DiFMUP excitation and emission wavelength. The lower the fluorescence the higher the SHP2 inhibition.
The percentage inhibition is fitted against the compound dilutions with a four-parameter logistic regression. The inflection point (i.e. the concentration at which half-maximal inhibition is achieved) is the IC50.

[2] = test system: phospho-ERK1/2 (Thr202/Tyr204) in KYSE-520 cells; assay: Phospho-ERK cellular assay (TR-FRET); type: cell-based; details: Homo sapiens, KYSE-520, 2 h, KYSE-520 cells, 2 h at 37° C.; read-out: pERK IC50
Procedure: ERK phosphorylation was detected using the “Advanced phospho-ERK1/2 (Thr202/Tyr204)” TR-FRET kit (Cisbio, Cat #64AERPEG/H), following the manufacturer reagents and instructions.
Briefly, 20.000/well KYSE-520 cells (DSMZ ACC 371) were plated in 6 μL RPMI-1640 (Invitrogen) growth medium, into 384 white low-volume high base TC microplates (Greiner). After an overnight incubation, cells were treated with DMSO serial diluted compounds and incubated for 2 h at 37° C. After incubation, 2 μL/well of 4X Lysis Buffer (Cisbio 64KL1FDF), were added and incubated with cells for 30 min on gentle shaking. Finally, lysates were added with 2 μL/well of Eu cryptate (donor) and D2 (acceptor) conjugated antibodies (as provided by the Cisbio kit #64AERPEG/H) diluted 1:100 in Detection Buffer (as provided by the Cisbio kit #64AERPEG/H). Plates were then sealed and incubated at rt in the dark. After an overnight incubation, the TR-FRET signal was detected on a suitable reader (Envision, PerkinElmer). The lower the TR-FRET signal the higher the higher the SHP2 inhibition in cells.
The activity of each compound dilution was calculated as percentage between vehicle DMSO treated cells and no cells, 0% inhibition and 100% inhibition respectively. The percentage activity is fitted against the compound dilutions with a four-parameter logistic regression. The inflection point (i.e. the concentration at which half-maximal inhibition is achieved) is the IC50.

SMILES	IC50 [1] [nM]	IC50 [2] [nM]
Nc1nccc(Sc2cnc(N3CCC4(CC3)Cn3nc(CO)c(CO)c3[C@H]4N)c3cncn23)c1Cl [Example 28, (S)-(4′-amino-1-(5-((2-amino-3-chloropyridin-4-yl)thio)imidazo[1,5-a]pyrazin-8-yl)-4′H,6′H-spiro[piperidine-4,5′-pyrrolo[1,2-b]pyrazole]-2′,3′-diyl)dimethanol]	50 to 300	< 100
Nc1nccc(Sc2ncc(N3CCC4(CC3)Cn3nccc3[C@H]4N)n3cncc23)c1Cl [Example 30, (S)-1-(8-((2-amino-3-chloropyridin-4-yl)thio)imidazo[1,5-a]pyrazin-5-yl)-4′H,6′H-spiro[piperidine-4,5′-pyrrolo[1,2-b]pyrazol]-4′-amine]	> 300	> 500
N[C@@H]1c2ccnn2CC12CCN(c1ncc(Sc3ccn4ccnc4c3Cl)n3cncc13)CC2 [Example 32, (S)-1-(5-((8-chloroimidazo[1,2-a]pyridin-7-yl)thio)imidazo[1,5-a]pyrazin-8-yl)-4′H,6′H-spiro[piperidine-4,5′-pyrrolo[1,2-b]pyrazol]-4′-amine]	≤ 50	100 to 500
Cc1cc(C)n(-c2nccc(Sc3cnc(N4CCC5(CC4)Cn4nccc4[C@H]5N)cn3)c2Cl)n1 [Example 34, (S)-1-(5-((3-chloro-2-(3,5-dimethyl-1H-pyrazol-1-yl)pyridin-4-yl)thio)pyrazin-2-yl)-4′H,6′H-spiro[piperidine-4,5′-pyrrolo[1,2-b]pyrazol]-4′-amine]	≤ 50	< 100
Nc1nccc(Sc2ccc(N3CCC4(CC3)Cn3nccc3[C@H]4N)nn2)c1Cl [Example 35, (S)-1-(6-((2-amino-3-chloropyridin-4-yl)thio)pyridazin-3-yl)-4′H,6′H-spiro[piperidine-4,5′-pyrrolo[1,2-b]pyrazol]-4′-amine]	≤ 50	100 to 500
Nc1nc(N2CCC3(CC2)Cn2nncc2[C@H]3N)cnc1Sc1cccnc1C(F)(F)F [Example 36, (S)-1-(6-amino-5-((2-(trifluoromethyl)pyridin-3-yl)thio)pyrazin-2-yl)-4′H,6′H-spiro[piperidine-4,5′-pyrrolo[1,2-c][1,2,3]triazol]-4′-amine]	≤ 50	> 500
Nc1nc(N2CCC3(CC2)Cn2nncc2[C@H]3N)cnc1Sc1ccnc(N)c1Cl [Example 37, (S)-1-(6-amino-5-((2-amino-3-chloropyridin-4-yl)thio)pyrazin-2-yl)-4′H,6′H-spiro[piperidine-4,5′-pyrrolo[1,2-c][1,2,3]triazol]-4′-amine]	≤ 50	100 to 500
Nc1nccc(Sc2cnc(N3CCC4(CC3)Cn3nncc3[C@H]4N)n3ccnc23)c1Cl [Example 39, (S)-1-(8-((2-amino-3-chloropyridin-4-yl)thio)imidazo[1,2-c]pyrimidin-5-yl)-4′H,6′H-spiro[piperidine-4,5′-pyrrolo[1,2-c][1,2,3]triazol]-4′-amine]	≤ 50	100 to 500
Nc1nccc(-c2n[nH]c3nc(N4CCC5(CC4)Cn4nccc4[C@H]5N)cnc23)c1Cl [Example 40, (S)-1-(3-(2-amino-3-chloropyridin-4-yl)-1H-pyrazolo[3,4-b]pyrazin-6-yl)-4′H,6′H-spiro[piperidine-4,5′-pyrrolo[1,2-b]pyrazol]-4′-amine]	≤ 50	< 100
N[C@@H]1c2cnnn2CC12CCN(c1cnc3c(-c4cccc(Cl)c4Cl)n[nH]c3n1)CC2 [Example 41, (S)-1-(3-(2,3-dichlorophenyl)-1H-pyrazolo[3,4-b]pyrazin-6-yl)-4′H,6′H-spiro[piperidine-4,5′-pyrrolo[1,2-c][1,2,3]triazol]-4′-amine]	≤ 50	> 500
Nc1nccc(Sc2cnc(N3CCC4(CC3)Cn3cnnc3[C@H]4N)cn2)c1Cl [Example 42, (S)-1-(5-((2-amino-3-chloropyridin-4-yl)thio)pyrazin-2-yl)-5′H,7′H-spiro[piperidine-4,6′-pyrrolo[2,1-c][1,2,4]triazol]-7′-amine]	50 to 300	> 500
Cc1nc(N2CCC3(CC2)Cn2nccc2[C@H]3N)c(CO)nc1Sc1ccnc(N)c1Cl [Example 45, (S)-(6-((2-amino-3-chloropyridin-4-yl)thio)-3-(4′-amino-4′H,6′H-spiro[piperidine-4,5′-pyrrolo[1,2-b]pyrazol]-1-yl)-5-methylpyrazin-2-yl)methanol]	≤ 50	< 100
Cn1c(N2CCC3(CC2)Cn2nccc2[C@H]3N)nc2[nH]nc(-c3ccnc(N)c3Cl)c2c1=O [Example 46, (S)-3-(2-amino-3-chloropyridin-4-yl)-6-(4′-amino-4′H,6′H-spiro[piperidine-4,5′-pyrrolo[1,2-b]pyrazol]-1-yl)-5-methyl-1,5-dihydro-4H-pyrazolo[3,4-d]pyrimidin-4-one]	≤ 50	< 100
Nc1cnc(Sc2cnc(N3CCC4(CC3)Cn3nccc3[C@H]4N)cn2)c(Cl)n1 [Example 47, (S)-1-(5-((5-amino-3-chloropyrazin-2-yl)thio)pyrazin-2-yl)-4′H,6′H-spiro[piperidine-4,5′-pyrrolo[1,2-b]pyrazol]-4′-amine]	≤ 50	< 100
N[C@@H]1c2ccnn2CC12CCN(c1cnc(Sc3ccn4c(Cl)cnc4c3Cl)cn1)CC2 [Example 48, (S)-1-(5-((3,8-dichloroimidazo[1,2-a]pyridin-7-yl)thio)pyrazin-2-yl)-4′H,6′H-spiro[piperidine-4,5′-pyrrolo[1,2-b]pyrazol]-4′-amine]	≤ 50	< 100
N[C@@H]1c2c(F)cnn2CC12CCN(c1cnc(Sc3ccn4c(Cl)cnc4c3Cl)cn1)CC2 [Example 50, (S)-1-(5-((3,8-dichloroimidazo[1,2-a]pyridin-7-yl)thio)pyrazin-2-yl)-3′-fluoro-4′H,6′H-spiro[piperidine-4,5′-pyrrolo[1,2-b]pyrazol]-4′-amine]	≤ 50	< 100
N[C@@H]1c2ccnn2CC12CCN(c1cnc(Sc3ccn4cnnc4c3Cl)cn1)CC2 [Example 51, (S)-1-(5-((8-chloro-[1,2,4]triazolo[4,3-a]pyridin-7-yl)thio)pyrazin-2-yl)-4′H,6′H-spiro[piperidine-4,5′-pyrrolo[1,2-b]pyrazol]-4′-amine]	≤ 50	100 to 500
N[C@@H]1c2ccnn2CC12CCN(c1cnc(Sc3ccn4c([N+](=O)[O-])cnc4c3Cl)cn1)CC2 [Example 52, (S)-1-(5-((8-chloro-3-nitroimidazo[1,2-a]pyridin-7-yl)thio)pyrazin-2-yl)-4′H,6′H-spiro[piperidine-4,5′-pyrrolo[1,2-b]pyrazol]-4′-amine]	≤ 50	< 100
Nc1ccc(Sc2cnc(N3CCC4(CC3)Cn3nccc3[C@H]4N)cn2)c(Cl)n1 [Example 55, (S)-1-(5-((6-amino-2-chloropyridin-3-yl)thio)pyrazin-2-yl)-4′H,6′H-spiro[piperidine-4,5′-pyrrolo[1,2-b]pyrazol]-4′-amine]	≤ 50	< 100
N[C@@H]1c2ccnn2CC12CCN(c1cnc(Sc3ccc4nccn4c3Cl)cn1)CC2 [Example 56, (S)-1-(5-((5-chloroimidazo[1,2-a]pyridin-6-yl)thio)pyrazin-2-yl)-4′H,6′H-spiro[piperidine-4,5′-pyrrolo[1,2-b]pyrazol]-4′-amine]	≤ 50	< 100
